Test results taken from patent US20250170131A1, “METHOD FOR THE TREATMENT OF ANTERIOR ISCHEMIC OPTIC NEUROPATHY” (Nicox SA, priority 2022, published 2025).
“Also recorded” adds a separate entry of the source.

Columns and labels:
[1] = tested on: endothelin-1 (ET-1)-induced ischemia/reperfusion injury of optic nerve head and retina; assay: OA-RI by Echo-Color-Doppler, Compound (I) vs des-nitro Compound (Ia) (Example 2); type: in vivo, rabbits; details: for OA-RI, ET-1 + treatment Week 3 / OA-RI, ET-1 + treatment Week 4 / OA-RI, ET-1 + treatment Week 5 / OA-RI, ET-1 + treatment Week 6: Cpd (I) 1.0% / Cpd (Ia) 0.93% (equimolar), topical twice daily from week 3; for OA-RI, ET-1 (1st dose) Week 2: ET-1 only, before treatment; for Effect on OA-RI / ocular perfusion (in words): ET-1 rabbit model, equimolar doses, weeks 3-6; for OA-RI, Baseline Week 0: before ET-1 and treatment
Experimental: This study evaluated the ocular hemodynamic effects of repeated topical ocular dosing of Compound (I) in comparison to its des-nitro derivative Compound (Ia) administered at equimolar doses in rabbits with endothelin-1 (ET-1)-induced ischemia/reperfusion injury of optic nerve head and retina. Method: ET-1 was injected next to the optic nerve head twice/week for 6 weeks. Animals received Compound (I) (1% twice daily, 6 days/week), Compound (Ia) (0.93%, equimolar to 1% Compound (I)) or vehicle from week 3 until the end of ET-1 treatment. Functional endpoint was ophthalmic artery resistive index (OA-RI) determined using an Echo-Color-Doppler.

[2] = tested on: ischemia/reperfusion injury of the optic nerve induced by the subtenon injection of endothelin-1 (ET-1) in rabbits; assay: Ophthalmic artery resistive index (OA-RI) by Echo Color Doppler, ET-1 ischemia/reperfusion model (Example 1); type: in vivo, New Zealand white (NZW) rabbits; details: for Ophthalmic artery resistive index (OA-RI), Baseline: prior to ET-1 dosing (time 0), before test item; for OA-RI, ET-1 (4-weeks) + Test items (2 weeks daily bid): week 4; for OA-RI, ET-1 (4-weeks) + Test items (2 weeks daily bid) / OA-RI, ET-1 (6 weeks) + Test items (4 weeks daily bid): 1% w/w, 30 microL/eye topical twice daily; for OA-RI, ET-1 (6 weeks) + Test items (4 weeks daily bid): week 6
Experimental: (§1) These experiments were performed to determine the effects of [(2S)-1-(4-{[(3-chloro-4-methoxyphenyl)methyl]amino}-5-{[(pyrimidin-2yl)methyl]carbamoyl}pyrimidin-2-yl)pyrrolidin-2-yl]methyl 6-(nitrooxy)hexanoate (Compound (I)) on ocular vascular reactivity and retinal function after ocular topical dosing in a model of ischemia/reperfusion injury of the optic nerve induced by the subtenon injection of endothelin-1 (ET-1) in rabbits.
(§2) Adult male New Zealand white (NZW) rabbits weighting 1.5-2.0 kg were used. All animals received a single 30 microL/eye topical dose of Compound (I) (1% w/w) or vehicle (Kolliphor® EL 5.0% w/w, Myrj™ S40 3.0% w/w, Kollisolv® PEG400 2.8% w/w, H3BO3 0.19% w/w, Na2HPO4·7H2O 0.51% w/w, EDTA 0.10% w/w, BAK 0.01% w/w, HCl 0.5N q.s. pH 6.6, purified water q.s. 100 g) twice daily for 4 consecutive weeks starting 2 weeks after Endothelin-1 (ET-1) first dosing.
(§3) Ischemia/reperfusion injury was induced in each animal by subtenon injection (twice/week for 6 weeks) of 200 microL of 250 nM ET-1 dissolved in water using a lacrimal cannula under anaesthesia produced by ketamine and xylazine injected intramuscularly.
Ophthalmic Artery Resistive Index (OA-RI) measurements were taken using an Echo Color Doppler prior to ET-1 treatment (baseline, time 0), and weekly thereafter till the end of the study. Pourcelot resistive index for ophthalmic artery (OA-RI) was calculated using the following formula: (OA-PSV−OA-EDV)/OA-PSV where OA-PSV and OA-EDV refer to Ophthalmic Artery Peak Systolic Velocity and Ophthalmic Artery End Diastolic Velocity, respectively.
(§4) Measurements were taken prior to ET-1 first dose (baseline, time 0), then at the end of week 2 (prior to vehicle- or Compound (I) first day-first dose) and at the end of week 6.

[3] = tested on: ischemia/reperfusion injury of the optic nerve induced by the subtenon injection of endothelin-1 (ET-1) in rabbits; assay: Electroretinogram (ERG) recording, ET-1 ischemia/reperfusion model (Example 1); type: in vivo, New Zealand white (NZW) rabbits
Experimental: as §1, §2, §3
Electroretinogram (ERGs) recording took place under topical anaesthesia. The eyes were also dilated by topical application of tropicamide 1% and, when needed, adapted to darkness for at least 2 hours prior to ERGs recording. ERGs recording were performed with standard contact lens corneal electrodes. Specifically, the dark-adapted 0.01 ERG (mostly rod response), dark-adapted 3.0 ERG (combined rod/cone response) and, light-adapted 3.0 (mostly cone response) were recorded.
as §4

[4] = tested on: blood flow nearby the optic nerve head and choroid; details: systemic dosing; British J Ophthalmology 83 (1999); cited from earlier work

| SMILES | OA-RI, ET-1 + treatment Week 3 [1] | OA-RI, ET-1 + treatment Week 4 [1] | OA-RI, ET-1 + treatment Week 5 [1] | OA-RI, ET-1 + treatment Week 6 [1] | OA-RI, ET-1 (1st dose) Week 2 [1] | Effect on OA-RI / ocular perfusion (in words) [1] | OA-RI, Baseline Week 0 [1] | Effect on OA-RI (in words) ([2]; ET-1 rabbit model, topical dosing) | OA-RI, ET-1 (2 weeks) ([2]; after 2 weeks ET-1 twice weekly, before first dose of test item, mean±SD) | Ophthalmic artery resistive index (OA-RI), Baseline ([2]; mean±SD) | Ophthalmic artery resistive index (OA-RI), Baseline ([2]; mean±SD, listed as Cpd (I)) | OA-RI, ET-1 (4-weeks) + Test items (2 weeks daily bid) ([2]; mean±SD) | OA-RI, ET-1 (4-weeks) + Test items (2 weeks daily bid) ([2]; mean±SD, listed as Cpd (I)) | OA-RI, ET-1 (6 weeks) + Test items (4 weeks daily bid) ([2]; mean±SD) | OA-RI, ET-1 (6 weeks) + Test items (4 weeks daily bid) ([2]; mean±SD, listed as Cpd (I)) | Effect on retinal function / ERG (in words) ([3]; ET-1 rabbit model, 4 weeks topical dosing) | ERG Amplitude, ET-1 (6 weeks) + Test items (4 weeks daily bid) ([3]; Light adapted 3.0 (Rod/cone response), 1% w/w, 30 microL/eye topical bid, ± S.D.) | ERG Amplitude, ET-1 (2 weeks) ([3]; Light adapted 3.0 (Rod/cone response), before first dose of test item, ± S.D.) | ERG Amplitude, Baseline ([3]; Light adapted 3.0 (Rod/cone response), prior to ET-1, ± S.D.) | Effect on ocular blood flow (in words) [4] |
| --- | --- | --- | --- | --- | --- | --- | --- | --- | --- | --- | --- | --- | --- | --- | --- | --- | --- | --- | --- | --- |
| COc1ccc(CNc2nc(N3CCC[C@H]3COC(=O)CCCCCO[N+](=O)[O-])ncc2C(=O)NCc2ncccn2)cc1Cl [Compound (I), [(2S)-1-(4-{[(3-Chloro-4-methoxyphenyl)methyl]amino}-5-{[(pyrimidin-2-yl)methyl]carbamoyl}pyrimidin-2-yl)pyrrolidin-2-yl]methyl 6-(nitrooxy)hexanoate] | 0.41 ± 0.01 | 0.37 ± 0.03 | 0.37 ± 0.03 | 0.39 ± 0.03 | 0.46 ± 0.02 | restored baseline OA-RI by week 6; also recorded: ameliorates ocular perfusion | 0.34 ± 0.02 | reduced ophthalmic artery resistive index (OA-RI) | 0.48 ± 0.06 | 0.40±0.08 | 0.40 ± 0.08 | 0.43±0.09 | 0.43 ± 0.09 | 0.43±0.04 | 0.43 ± 0.04 | increased photoreceptor activity; also recorded: less impairment in the ERG wave amplitude than those treated with vehicle | 131.6 ± 46.4 μV | 100.5 ± 33.3 μV | 115.9 ± 30.0 μV |  |
| COc1ccc(CNc2nc(N3CCC[C@H]3COC(=O)CCCCCO)ncc2C(=O)NCc2ncccn2)cc1Cl [Compound (Ia), [(2S)-1-(4-{[(3-Chloro-4-methoxyphenyl)methyl]amino}-5-{[(pyrimidin-2-yl)methyl]carbamoyl}pyrimidin-2-yl)pyrrolidin-2-yl]methyl 6-hydroxyhexanoate, reference compound] | 0.49 ± 0.00 | 0.47 ± 0.01 | 0.51+0.02 | 0.48 ± 0.07 | 0.51 ± 0.01 | not effective; also recorded: only resulted in minor activity | 0.34 ± 0.02 |  |  |  |  |  |  |  |  |  |  |  |  |  |
| O=[N+]([O-])O[C@@H]1CO[C@H]2[C@@H]1OC[C@@H]2O [ISMN, isosorbide mononitrate] |  |  |  |  |  |  |  |  |  |  |  |  |  |  |  |  |  |  |  | increases blood flow nearby optic nerve head without changes to the choroidal compartment |
